The experiment concerns full-length human prolyl-4-hydroxylase domain (PHD) enzymes, PHD1 and PHD2. As to the kind of experiment: TR-FRET assay, selectivity of compounds for PHD1 over PHD2 (ratio of Kis calculated from IC50s). Format: biochemical. The note with it: ratio of Kis (PHD2 Ki/PHD1 Ki), Kis calculated from TR-FRET IC50s by Cheng Prussoff equation; 1 uM 2-OG. The source says:
Time-resolved fluorescence resonance energy transfer (TR-FRET) assay was utilized to determine the enzymatic half maximal inhibitory concentration (IC50) value of PHD inhibitors against the full-length human prolyl-4-hydroxylase domain (PHD) enzymes, PHD1 and PHD2. The TR-FRET assay was developed based on the specific binding of hydroxylated HIF-la peptide with the complex formed by VHL, EloB and EloC (VBC), to generate a fluorescent signal. Terbium (Tb)-Donor (monoclonal antibody anti-6His-Tb-cryptate Gold) and D2-acceptor (streptavidin [SA]-D2) of TR-FRET are linked to the VBC complex and to HIF-1α peptide, respectively. The VBC complex binds specifically to the HIF-1α peptide when it is hydroxylated, allowing energy transfer from TR-FRET donor to acceptor (FIG. 1).
TR-FRET Reagents. Monoclonal antibody anti-6His-Tb-cryptate Gold (catalog #61HI2TLA) and streptavidin (SA)-D2 (catalog #610SADLA) were purchased from CisBio International (Bedford, MA, USA).
N-terminus biotinylated HIF-1α C35 synthetic peptide representing amino acids 547 to 581 and including the proline 564 PHD2 hydroxylation site was purchased from California Peptide Research (Salt Lake City, UT, USA).
VBC Complex. His-tagged recombinant VHL protein, EloB, EloC complex (His-VBC) was supplied by Axxam (Milan, Italy). Recombinant human VHL (National Center for Biotechnology Information [NCBI] accession number NP_00542.1) contained a His tag at the C-terminus of amino acids 55 to 213 and is referred to as VHL-His. VHL-His was co-expressed in E. coli with full-length human EloB (NCBI accession number Q15370.1) and full-length human EloC (NCBI accession number Q15369.1) and purified by affinity chromatography on a nickel-nitrilotriacetic acid (Ni-NTA) column as the His-VBC complex. Purity (˜80%) was assessed by sodium dodecyl sulfate polyacrylamide gel electrophoresis (SDS-PAGE).
PHD1. Recombinant human PHD1 protein (catalog #81064, Lot #24717001) was purchased from Active Motif (Carlsbad, CA, USA). PHD1 was expressed in a baculovirus expression system as the full-length protein (NCBI accession number NP_542770.2) with an N-terminal FLAG tag (molecular weight 44.9 kDa). Purity (>90%) was assessed by SDS-PAGE.
PHD2. The full-length human PHD2 enzyme was produced with a baculovirus infected insect cell (BIIC) expression system by Beryllium (Bedford, MA, USA). The PHD2 construct contained amino acids 1 to 426 of PHD2 (UniProt Knowledgebase[UniProtKB]/Swiss-Prot accession number Q9GZT9.1), and a His tag and a Tobacco Etch Virus (TEV) protease cleavage site at the N-terminus. The construct was expressed in Sf9 insect cells, purified by Ni-NTA column and digested with TEV protease to remove the His tag.
Compounds were preincubated with PHD enzyme in a 10 μL reaction volume in white 384-well Optiplate microplates (catalog #6007290, Perkin Elmer, Waltham, MA, USA). For this, 5 μL compound was serially diluted with dilution buffer (50 mM HEPES [4-(2-hydroxyethyl)-1-piperazineethanesulfonic acid] pH 7.5, 50 mM sodium chloride [NaCl], 0.01% Tween-20, 0.01% purified bovine serum albumin [BSA]) and mixed with 5 μL PHD enzyme mix prepared as a 4× concentrate in the dilution buffer containing PHD enzyme (60 nM PHD1, 20 nM PHD2, 140 nM PHD3), 40 μM ferrous ammonium sulfate (FAS), 4 mM sodium (Na) ascorbate. The plates were incubated for 30 minutes at room temperature without rotation.
Five microliters of the VBC/anti-6His-Tb-cryptate Gold mix prepared as a 4× concentrate in dilution buffer containing 20 nM His-VBC, 1.32 nM monoclonal antibody anti-6His-Tb-cryptate Gold was then added. This step was followed immediately by the addition of 5 μL of the HIF-1α C35 substrate mix prepared as a 4× concentrate in the dilution buffer containing 120 nM biotin-labeled HIF-1α C35, 132 nM SA-D2, 4 μM 2-oxoglutarate (2-OG) to reach a final reaction volume of 20 μL. […]
For `CC(C)(CNC(=O)c1ncc(-c2ccc3cc(OCc4ccc(Cl)cc4)ccc3c2)cc1O)C(=O)O` [compound 27, 3-(5-(6-((4-chlorobenzyl)oxy)naphthalen-2-yl)-3-hydroxypicolinamido)-2,2-dimethylpropanoic acid], the “Selectivity of PHD1 over PHD2” value was approximately 24 fold.

As to `CC(C)(CNC(=O)c1ncc(-c2ccc3cc(OCCc4ccc(Cl)cc4)ccc3c2)cc1O)C(=O)O` [compound 28, 3-(5-(6-(4-chlorophenethoxy)naphthalen-2-yl)-3-hydroxypicolinamido)-2,2-dimethylpropanoic acid], the “Selectivity of PHD1 over PHD2” value was approximately 9 fold.

`CC(C)(CNC(=O)c1ncc(-c2cccc(N)c2)cc1O)C(=O)O` [compound 29, 3-(5-(3-aminophenyl)-3-hydroxypicolinamido)-2,2-dimethylpropanoic acid]: the “Selectivity of PHD1 over PHD2” value is listed as approximately 20 fold.

On to `CC(C)(CNC(=O)c1ncc(-c2cccc(NCc3ccc(Cl)cc3)c2)cc1O)C(=O)O` [compound 30, 3-(5-(3-((4-Chlorobenzyl)amino)phenyl)-3-hydroxypicolinamido)-2,2-dimethylpropanoic acid], for which the “Selectivity of PHD1 over PHD2” value is approximately 223 fold.

With `CC(C)(CNC(=O)c1ncc(-c2cccc(OCCc3ccc(Cl)cc3)c2)cc1O)C(=O)O` [compound 31, 3-(5-(3-(4-chlorophenethoxy)phenyl)-3-hydroxypicolinamido)-2,2-dimethylpropanoic acid], the “Selectivity of PHD1 over PHD2” value is approximately 40 fold.

Regarding `CC(C)(C)OC(=O)N1CCC(n2cc(-c3cnc(C(=O)NCC(C)(C)C(=O)O)c(O)c3)cn2)CC1` [compound 32, 3-(5-(1-(1-(tert-butoxycarbonyl)piperidin-4-yl)-1H-pyrazol-4-yl)-3-hydroxypicolinamido)-2,2-dimethylpropanoic acid], the “Selectivity of PHD1 over PHD2” value was approximately 444 fold.

For `CC(C)(C)OC(=O)N1CCc2sc(-c3cnc(C(=O)NCC(C)(C)C(=O)O)c(O)c3)cc2C1` [compound 33, 3-(5-(5-(tert-butoxycarbonyl)-4,5,6,7-tetrahydrothieno[3,2-c]pyridin-2-yl)-3-hydroxypicolinamido)-2,2-dimethylpropanoic acid], the “Selectivity of PHD1 over PHD2” value is given as approximately 1605 fold.

Take `CC(C)(CNC(=O)c1ncc(-c2cnn(-c3ccc(Cl)cc3Cl)c2)cc1O)C(=O)O` [compound 34, 3-(5-(1-(2,4-dichlorophenyl)-1H-pyrazol-4-yl)-3-hydroxypicolinamido)-2,2-dimethylpropanoic acid]: the “Selectivity of PHD1 over PHD2” value is reported as approximately 24 fold.

Consider `CC(C)(CNC(=O)c1ncc(-c2cc3nc(Cl)ccc3s2)cc1O)C(=O)O` [compound 35, 3-(5-(5-chlorothieno[3,2-b]pyridin-2-yl)-3-hydroxypicolinamido)-2,2-dimethylpropanoic acid], for which the “Selectivity of PHD1 over PHD2” value is approximately 271 fold.

Consider `CC(C)(CNC(=O)c1ncc(-c2ccc(S(=O)(=O)N3CCCC3)cc2CO)cc1O)C(=O)O` [compound 36, 3-(3-hydroxy-5-(2-(hydroxymethyl)-4-(pyrrolidin-1-ylsulfonyl)phenyl)picolinamido)-2,2-dimethylpropanoic acid], for which the “Selectivity of PHD1 over PHD2” value was approximately 113 fold.

`CC(C)(CNC(=O)c1ncc(-c2cnn(-c3cccc(C(F)(F)F)c3)c2)cc1O)C(=O)O` [compound 37, 3-(3-hydroxy-5-(1-(3-(trifluoromethyl)phenyl)-1H-pyrazol-4-yl)picolinamido)-2,2-dimethylpropanoic acid]: the “Selectivity of PHD1 over PHD2” value is recorded as approximately 25 fold.

For `CC(C)(CNC(=O)c1ncc(-c2cnn3c2CCCC3)cc1O)C(=O)O` [compound 38, 3-(3-hydroxy-5-(4,5,6,7-tetrahydropyrazolo[1,5-a]pyridin-3-yl)picolinamido)-2,2-dimethylpropanoic acid], the “Selectivity of PHD1 over PHD2” value is recorded as approximately 49 fold.

With `Cc1ccnc2ccc(-c3cnc(C(=O)NCC(C)(C)C(=O)O)c(O)c3)cc12` [compound 39, 3-(3-hydroxy-5-(4-methylquinolin-6-yl)picolinamido)-2,2-dimethylpropanoic acid], the “Selectivity of PHD1 over PHD2” value is approximately 230 fold.

`Cc1cccc2cc(-c3cnc(C(=O)NCC(C)(C)C(=O)O)c(O)c3)cnc12` [compound 40, 3-(3-hydroxy-5-(8-methylquinolin-3-yl)picolinamido)-2,2-dimethylpropanoic acid]: the “Selectivity of PHD1 over PHD2” value is approximately 20 fold.

As to `COc1ccc2cc(-c3cnc(C(=O)NCC(C)(C)C(=O)O)c(O)c3)ccc2c1` [compound 41, 3-(3-hydroxy-5-(6-methoxynaphthalen-2-yl)picolinamido)-2,2-dimethylpropanoic acid], the “Selectivity of PHD1 over PHD2” value is approximately 1960 fold.

As to `CC(C)(CNC(=O)c1ncc(-c2ccc3cnccc3c2)cc1O)C(=O)O` [compound 42, 3-(3-hydroxy-5-(isoquinolin-6-yl)picolinamido)-2,2-dimethylpropanoic acid], the “Selectivity of PHD1 over PHD2” value was approximately 197 fold.

Regarding `CC(C)(CNC(=O)c1ncc(-c2ccc3ccncc3c2)cc1O)C(=O)O` [compound 43, 3-(3-hydroxy-5-(isoquinolin-7-yl)picolinamido)-2,2-dimethylpropanoic acid], the “Selectivity of PHD1 over PHD2” value is approximately 1875 fold.

`Cc1ccc2ccc(-c3cnc(C(=O)NCC(C)(C)C(=O)O)c(O)c3)c(F)c2n1` [compound 44, 3-(5-(8-fluoro-2-methylquinolin-7-yl)-3-hydroxypicolinamido)-2,2-dimethylpropanoic acid]: the “Selectivity of PHD1 over PHD2” value is approximately 1833 fold.

Turning to `Cc1ccc2cc(-c3cnc(C(=O)NCC(C)(C)C(=O)O)c(O)c3)ccc2n1` [compound 45, 3-(3-hydroxy-5-(2-methylquinolin-6-yl)picolinamido)-2,2-dimethylpropanoic acid], the “Selectivity of PHD1 over PHD2” value was approximately 3740 fold.

On to `CC(C)(CNC(=O)c1ncc(-c2ccc3nccnc3c2)cc1O)C(=O)O` [compound 46, 3-(3-hydroxy-5-(quinoxalin-6-yl)picolinamido)-2,2-dimethylpropanoic acid], for which the “Selectivity of PHD1 over PHD2” value is approximately 124 fold.

As to `CC(C)(CNC(=O)c1ncc(-c2cn(CCCc3ccc(Cl)cc3)nn2)cc1O)C(=O)O` [compound 47, 3-(5-(1-(3-(4-chlorophenyl)propyl)-1H-1,2,3-triazol-4-yl)-3-hydroxypicolinamido)-2,2-dimethylpropanoic acid], the “Selectivity of PHD1 over PHD2” value is given as approximately 10 fold.

With `CC(CNC(=O)c1ncc(-c2ccc3ccccc3c2)cc1O)C(=O)O` (stereo not shown) [compound 48, 3-(3-Hydroxy-5-(naphthalen-2-yl)picolinamido)-2-methylpropanoic acid], the “Selectivity of PHD1 over PHD2” value is listed as approximately 167 fold.

As for `CC(CNC(=O)c1ncc(-c2cccc(Cl)c2)cc1O)C(=O)O` (stereo not shown) [compound 49, 3-(5-(3-chlorophenyl)-3-hydroxypicolinamido)-2-methylpropanoic acid], the “Selectivity of PHD1 over PHD2” value is given as approximately 12 fold.

For `CC(CNC(=O)c1ncc(-c2cnn(-c3ccccc3)c2)cc1O)C(=O)O` (stereo not shown) [compound 50, 3-(3-hydroxy-5-(1-phenyl-1H-pyrazol-4-yl)picolinamido)-2-methylpropanoic acid], the “Selectivity of PHD1 over PHD2” value is recorded as approximately 50 fold.

Consider `CC(C)(CNC(=O)c1nc(C#N)c(-c2cccc(Cl)c2)cc1O)C(=O)O` [compound 51, 3-(5-(3-chlorophenyl)-6-cyano-3-hydroxypicolinamido)-2,2-dimethylpropanoic acid], for which the “Selectivity of PHD1 over PHD2” value is approximately 4 fold.

These data come from patent publication US20240336568A1, “SELECTIVE PHD1 INHIBITOR COMPOUNDS, COMPOSITIONS, AND METHODS OF USE” (Akebia Therapeutics, Inc., priority 2021, published 2024).
